What was measured:
[1] = molecular target: DNA-dependent protein kinase catalytic subunit (Homo sapiens, UniProt P78527); assay: Inhibition of human DNA-PK using EPPLSQEAFADLWKK as substrate by HTRF assay
CCRF-CEM = assay: Cytotoxicity against human CCRF-CEM cells assessed as cell growth inhibition at 10 uM after 48 hrs by SRB assay relative to control; type: functional; conditions: read-out: GI
[2] = Cytotoxicity against human HL-60(TB) cells assessed as cell growth inhibition at 10 uM after 48 hrs by SRB assay relative to control; type: functional; conditions: HL-60, 48 h, read-out: GI
K562 = assay: Cytotoxicity against human K562 cells assessed as cell growth inhibition at 10 uM after 48 hrs by SRB assay relative to control; type: functional; conditions: K562, 48 h, read-out: GI
[3] = Cytotoxicity against human MOLT4 cells assessed as cell growth inhibition at 10 uM after 48 hrs by SRB assay relative to control; type: functional; conditions: MOLT-4, 48 h, read-out: GI
[4] = Cytotoxicity against human RPMI8226 cells assessed as cell growth inhibition at 10 uM after 48 hrs by SRB assay relative to control; type: functional; conditions: RPMI-8226, 48 h, read-out: GI
SR = assay: Cytotoxicity against human SR cells assessed as cell growth inhibition at 10 uM after 48 hrs by SRB assay relative to control; type: functional; conditions: read-out: GI
A549 = assay: Cytotoxicity against human A549 cells assessed as cell growth inhibition at 10 uM after 48 hrs by SRB assay relative to control; type: functional; conditions: A549, 48 h, read-out: GI
[5] = Cytotoxicity against human HOP62 cells assessed as cell growth inhibition at 10 uM after 48 hrs by SRB assay relative to control; type: functional; conditions: HOP-62, 48 h, read-out: GI
NCI-H226 = assay: Cytotoxicity against human NCI-H226 cells assessed as cell growth inhibition at 10 uM after 48 hrs by SRB assay relative to control; type: functional; conditions: NCI-H226, 48 h, read-out: GI
NCI-H322M = assay: Cytotoxicity against human NCI-H322M cells assessed as cell growth inhibition at 10 uM after 48 hrs by SRB assay relative to control; type: functional; conditions: read-out: GI
NCI-H522 = assay: Cytotoxicity against human NCI-H522 cells assessed as cell growth inhibition at 10 uM after 48 hrs by SRB assay relative to control; type: functional; conditions: NCI-H522, 48 h, read-out: GI
[6] = Cytotoxicity against human COLO205 cells assessed as cell growth inhibition at 10 uM after 48 hrs by SRB assay relative to control; type: functional; conditions: COLO 205, 48 h, read-out: GI
[7] = Cytotoxicity against human HCC2998 cells assessed as cell growth inhibition at 10 uM after 48 hrs by SRB assay relative to control; type: functional; conditions: HCC 2998, 48 h, read-out: GI
KM12 = assay: Cytotoxicity against human KM12 cells assessed as cell growth inhibition at 10 uM after 48 hrs by SRB assay relative to control; type: functional; conditions: KM12, 48 h, read-out: GI
U-251 = assay: Cytotoxicity against human U251 cells assessed as cell growth inhibition at 10 uM after 48 hrs by SRB assay relative to control; type: functional; conditions: U-251, 48 h, read-out: GI
Malme-3M = assay: Cytotoxicity against human MALME-3M cells assessed as cell growth inhibition at 10 uM after 48 hrs by SRB assay relative to control; type: functional; conditions: read-out: GI
MDA-MB-435 = assay: Cytotoxicity against human MDA-MB-435 cells assessed as cell growth inhibition at 10 uM after 48 hrs by SRB assay relative to control; type: functional; conditions: MDA-MB-435, 48 h, read-out: GI
SK-MEL-28 = assay: Cytotoxicity against human SK-MEL-28 cells assessed as cell growth inhibition at 10 uM after 48 hrs by SRB assay relative to control; type: functional; conditions: SK-MEL-28, 48 h, read-out: GI
[8] = Cytotoxicity against human UACC62 cells assessed as cell growth inhibition at 10 uM after 48 hrs by SRB assay relative to control; type: functional; conditions: UACC-62, 48 h, read-out: GI
[9] = Cytotoxicity against human IGROV1 cells assessed as cell growth inhibition at 10 uM after 48 hrs by SRB assay relative to control; type: functional; conditions: IGROV-1, 48 h, read-out: GI
[10] = Cytotoxicity against human OVCAR4 cells assessed as cell growth inhibition at 10 uM after 48 hrs by SRB assay relative to control; type: functional; conditions: OVCAR-4, 48 h, read-out: GI
[11] = Cytotoxicity against human OVCAR5 cells assessed as cell growth inhibition at 10 uM after 48 hrs by SRB assay relative to control; type: functional; conditions: OVCAR-5, 48 h, read-out: GI
[12] = Cytotoxicity against human OVCAR8 cells assessed as cell growth inhibition at 10 uM after 48 hrs by SRB assay relative to control; type: functional; conditions: OVCAR-8, 48 h, read-out: GI
[13] = Cytotoxicity against human SKOV3 cells assessed as cell growth inhibition at 10 uM after 48 hrs by SRB assay relative to control; type: functional; conditions: SK-OV-3, 48 h, read-out: GI
786-0 = assay: Cytotoxicity against human 786-0 cells assessed as cell growth inhibition at 10 uM after 48 hrs by SRB assay relative to control; type: functional; conditions: 786-0, 48 h, read-out: GI
ACHN = assay: Cytotoxicity against human ACHN cells assessed as cell growth inhibition at 10 uM after 48 hrs by SRB assay relative to control; type: functional; conditions: read-out: GI
SN12C = assay: Cytotoxicity against human SN12C cells assessed as cell growth inhibition at 10 uM after 48 hrs by SRB assay relative to control; type: functional; conditions: read-out: GI
[14] = Cytotoxicity against human PC3 cells assessed as cell growth inhibition at 10 uM after 48 hrs by SRB assay relative to control; type: functional; conditions: PC-3, 48 h, read-out: GI
[15] = Cytotoxicity against human DU145 cells assessed as cell growth inhibition at 10 uM after 48 hrs by SRB assay relative to control; type: functional; conditions: DU-145, 48 h, read-out: GI
MCF7 = assay: Cytotoxicity against human MCF7 cells assessed as cell growth inhibition at 10 uM after 48 hrs by SRB assay relative to control; type: functional; conditions: MCF7, 48 h, read-out: GI
MDA-MB-231 = assay: Cytotoxicity against human MDA-MB-231 cells assessed as cell growth inhibition at 10 uM after 48 hrs by SRB assay relative to control; type: functional; conditions: MDA-MB-231, 48 h, read-out: GI
[16] = Cytotoxicity against human Hs 578T cells assessed as cell growth inhibition at 10 uM after 48 hrs by SRB assay relative to control; type: functional; conditions: read-out: GI
[17] = Cytotoxicity against human BT549 cells assessed as cell growth inhibition at 10 uM after 48 hrs by SRB assay relative to control; type: functional; conditions: BT-549, 48 h, read-out: GI
T47D = assay: Cytotoxicity against human T47D cells assessed as cell growth inhibition at 10 uM after 48 hrs by SRB assay relative to control; type: functional; conditions: read-out: GI
MDA-MB-468 = assay: Cytotoxicity against human MDA-MB-468 cells assessed as cell growth inhibition at 10 uM after 48 hrs by SRB assay relative to control; type: functional; conditions: MDA-MB-468, 48 h, read-out: GI

Sequence of DNA-dependent protein kinase catalytic subunit (P78527 whole entry): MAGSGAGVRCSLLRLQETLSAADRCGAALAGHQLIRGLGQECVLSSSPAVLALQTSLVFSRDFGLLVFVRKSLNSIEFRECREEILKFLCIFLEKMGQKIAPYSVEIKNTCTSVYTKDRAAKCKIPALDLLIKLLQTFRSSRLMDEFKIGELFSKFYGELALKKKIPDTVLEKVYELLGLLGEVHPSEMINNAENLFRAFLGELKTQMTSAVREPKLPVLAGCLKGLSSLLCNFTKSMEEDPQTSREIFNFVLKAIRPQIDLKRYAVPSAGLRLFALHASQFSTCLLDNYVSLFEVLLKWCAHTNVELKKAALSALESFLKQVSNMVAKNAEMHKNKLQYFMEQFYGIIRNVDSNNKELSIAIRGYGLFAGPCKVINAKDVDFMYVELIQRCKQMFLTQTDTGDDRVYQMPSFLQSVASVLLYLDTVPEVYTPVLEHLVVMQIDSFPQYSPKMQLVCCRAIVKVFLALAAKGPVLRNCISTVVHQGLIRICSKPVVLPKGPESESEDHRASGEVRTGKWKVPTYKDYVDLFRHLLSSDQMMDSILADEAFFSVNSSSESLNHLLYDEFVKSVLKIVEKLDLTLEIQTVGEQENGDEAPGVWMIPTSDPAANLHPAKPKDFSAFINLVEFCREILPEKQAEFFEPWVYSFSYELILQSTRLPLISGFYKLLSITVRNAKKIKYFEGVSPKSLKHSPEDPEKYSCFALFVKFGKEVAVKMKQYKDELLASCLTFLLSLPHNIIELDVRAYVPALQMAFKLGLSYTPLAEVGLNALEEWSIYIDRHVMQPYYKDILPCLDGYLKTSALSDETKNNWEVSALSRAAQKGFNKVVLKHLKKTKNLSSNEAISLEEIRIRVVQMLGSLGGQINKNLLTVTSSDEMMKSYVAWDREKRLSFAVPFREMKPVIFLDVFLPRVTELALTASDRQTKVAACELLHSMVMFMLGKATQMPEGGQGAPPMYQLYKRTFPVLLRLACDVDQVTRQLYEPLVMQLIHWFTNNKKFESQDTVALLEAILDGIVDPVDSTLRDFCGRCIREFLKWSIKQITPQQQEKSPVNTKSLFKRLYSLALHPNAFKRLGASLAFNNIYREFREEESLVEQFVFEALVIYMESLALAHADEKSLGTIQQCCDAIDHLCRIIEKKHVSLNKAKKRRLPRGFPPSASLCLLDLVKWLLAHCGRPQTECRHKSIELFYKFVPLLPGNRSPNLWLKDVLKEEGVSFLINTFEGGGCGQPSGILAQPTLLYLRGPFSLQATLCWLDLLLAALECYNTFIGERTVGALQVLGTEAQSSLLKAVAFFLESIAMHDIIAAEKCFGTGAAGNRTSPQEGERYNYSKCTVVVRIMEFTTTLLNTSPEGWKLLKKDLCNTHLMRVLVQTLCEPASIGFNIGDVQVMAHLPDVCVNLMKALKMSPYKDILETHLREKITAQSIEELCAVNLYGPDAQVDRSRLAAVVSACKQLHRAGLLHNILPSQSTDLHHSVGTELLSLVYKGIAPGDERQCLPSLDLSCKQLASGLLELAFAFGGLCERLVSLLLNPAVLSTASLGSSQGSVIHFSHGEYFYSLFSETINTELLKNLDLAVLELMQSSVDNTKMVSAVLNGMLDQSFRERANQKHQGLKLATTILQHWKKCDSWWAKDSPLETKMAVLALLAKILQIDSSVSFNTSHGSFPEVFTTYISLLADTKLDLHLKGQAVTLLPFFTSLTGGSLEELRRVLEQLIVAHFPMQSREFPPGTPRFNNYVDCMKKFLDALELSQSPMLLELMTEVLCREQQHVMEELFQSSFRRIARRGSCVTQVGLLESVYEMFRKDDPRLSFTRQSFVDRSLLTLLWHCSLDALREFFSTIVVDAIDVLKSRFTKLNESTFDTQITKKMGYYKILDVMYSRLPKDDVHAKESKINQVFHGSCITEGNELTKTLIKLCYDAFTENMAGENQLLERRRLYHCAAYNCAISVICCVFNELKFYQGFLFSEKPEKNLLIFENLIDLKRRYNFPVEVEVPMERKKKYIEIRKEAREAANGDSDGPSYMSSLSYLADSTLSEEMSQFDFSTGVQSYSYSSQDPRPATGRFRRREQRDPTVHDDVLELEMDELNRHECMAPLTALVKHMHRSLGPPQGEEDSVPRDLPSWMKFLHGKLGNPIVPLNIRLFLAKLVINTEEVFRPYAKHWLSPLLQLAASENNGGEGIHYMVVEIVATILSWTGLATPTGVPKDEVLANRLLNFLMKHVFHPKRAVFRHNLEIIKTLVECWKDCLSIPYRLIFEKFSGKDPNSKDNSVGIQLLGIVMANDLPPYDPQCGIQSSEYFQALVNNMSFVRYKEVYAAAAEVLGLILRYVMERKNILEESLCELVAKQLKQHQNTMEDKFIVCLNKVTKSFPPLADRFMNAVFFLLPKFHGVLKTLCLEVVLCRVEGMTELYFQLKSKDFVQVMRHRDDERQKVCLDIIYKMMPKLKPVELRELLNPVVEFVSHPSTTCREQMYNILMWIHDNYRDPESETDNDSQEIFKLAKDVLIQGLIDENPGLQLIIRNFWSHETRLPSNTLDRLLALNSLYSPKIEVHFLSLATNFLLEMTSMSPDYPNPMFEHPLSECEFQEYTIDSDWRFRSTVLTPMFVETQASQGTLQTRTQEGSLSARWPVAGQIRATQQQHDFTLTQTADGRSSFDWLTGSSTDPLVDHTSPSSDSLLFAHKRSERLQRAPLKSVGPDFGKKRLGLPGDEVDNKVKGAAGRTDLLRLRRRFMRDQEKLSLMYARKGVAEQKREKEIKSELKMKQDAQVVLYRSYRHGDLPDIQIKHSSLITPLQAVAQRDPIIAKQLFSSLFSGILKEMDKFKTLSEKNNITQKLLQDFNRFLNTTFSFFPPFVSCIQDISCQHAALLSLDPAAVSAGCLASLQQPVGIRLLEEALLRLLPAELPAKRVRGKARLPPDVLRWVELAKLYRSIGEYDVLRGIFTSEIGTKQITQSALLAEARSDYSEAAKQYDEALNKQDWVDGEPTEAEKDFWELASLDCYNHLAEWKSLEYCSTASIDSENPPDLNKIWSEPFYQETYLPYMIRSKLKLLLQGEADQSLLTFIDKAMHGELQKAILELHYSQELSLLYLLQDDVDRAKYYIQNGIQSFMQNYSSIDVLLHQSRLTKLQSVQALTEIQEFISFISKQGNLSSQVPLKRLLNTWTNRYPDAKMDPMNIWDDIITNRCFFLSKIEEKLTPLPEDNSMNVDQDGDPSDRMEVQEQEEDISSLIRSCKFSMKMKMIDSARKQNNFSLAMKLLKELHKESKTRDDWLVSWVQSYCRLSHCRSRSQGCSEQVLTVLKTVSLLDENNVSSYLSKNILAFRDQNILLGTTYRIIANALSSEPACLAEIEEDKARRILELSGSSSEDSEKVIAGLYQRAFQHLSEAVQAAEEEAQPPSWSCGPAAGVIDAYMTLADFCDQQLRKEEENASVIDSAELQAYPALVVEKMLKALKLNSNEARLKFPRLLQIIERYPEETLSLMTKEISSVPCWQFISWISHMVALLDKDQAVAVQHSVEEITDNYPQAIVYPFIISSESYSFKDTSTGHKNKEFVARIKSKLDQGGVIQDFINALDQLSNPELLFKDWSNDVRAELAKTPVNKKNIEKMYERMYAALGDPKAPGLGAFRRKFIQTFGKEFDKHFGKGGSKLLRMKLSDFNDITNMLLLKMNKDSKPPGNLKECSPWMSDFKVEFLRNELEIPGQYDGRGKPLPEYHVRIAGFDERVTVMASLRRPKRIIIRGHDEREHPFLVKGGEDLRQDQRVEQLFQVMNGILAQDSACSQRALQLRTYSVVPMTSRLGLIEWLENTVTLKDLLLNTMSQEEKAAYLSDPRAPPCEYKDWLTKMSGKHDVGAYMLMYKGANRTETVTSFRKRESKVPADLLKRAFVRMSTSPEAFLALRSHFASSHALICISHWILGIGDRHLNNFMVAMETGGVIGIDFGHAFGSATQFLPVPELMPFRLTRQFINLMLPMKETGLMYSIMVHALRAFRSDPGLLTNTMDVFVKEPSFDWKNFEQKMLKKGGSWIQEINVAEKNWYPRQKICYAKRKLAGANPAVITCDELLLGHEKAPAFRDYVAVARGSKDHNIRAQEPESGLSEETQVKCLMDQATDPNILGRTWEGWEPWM

Compound | IC50 [1] | inhibition of growth at 10 µM (CCRF-CEM) | inhibition of growth at 10 µM [2] | inhibition of growth at 10 µM (K562) | inhibition of growth at 10 µM [3] | inhibition of growth at 10 µM [4] | inhibition of growth at 10 µM (SR) | inhibition of growth at 10 µM (A549) | inhibition of growth at 10 µM [5] | inhibition of growth at 10 µM (NCI-H226) | inhibition of growth at 10 µM (NCI-H322M) | inhibition of growth at 10 µM (NCI-H522) | inhibition of growth at 10 µM [6] | inhibition of growth at 10 µM [7] | inhibition of growth at 10 µM (KM12) | inhibition of growth at 10 µM (U-251) | inhibition of growth at 10 µM (Malme-3M) | inhibition of growth at 10 µM (MDA-MB-435) | inhibition of growth at 10 µM (SK-MEL-28) | inhibition of growth at 10 µM [8] | further results
O=c1nc(N2CCOCC2)oc2c(-c3cccc4c3sc3ccccc34)cccc12 | 0.034 µM | 19.9% | 11.5% | 20.6% | 10.4% | 19.7% | 50.9% | 22.5% | 26.8% | 38.6% | 18.3% | 28.6% | 3.36% | 3.55% | 21.6% | 17.8% | 12.4% | 4.77% | -2.77% | 45.6% | inhibition of growth at 10 µM [9]: 15%; inhibition of growth at 10 µM [10]: 7.25%; inhibition of growth at 10 µM [11]: 18.8%; inhibition of growth at 10 µM [12]: 20.2%; inhibition of growth at 10 µM [13]: -11.4%; inhibition of growth at 10 µM (786-0): 27.7%; inhibition of growth at 10 µM (ACHN): 22.3%; inhibition of growth at 10 µM (SN12C): 18%; inhibition of growth at 10 µM [14]: 40.5%; inhibition of growth at 10 µM [15]: 5.8%; inhibition of growth at 10 µM (MCF7): 30.5%; inhibition of growth at 10 µM (MDA-MB-231): 29.5%; inhibition of growth at 10 µM [16]: 24.8%; inhibition of growth at 10 µM [17]: 13.6%; inhibition of growth at 10 µM (T47D): 42.8%; inhibition of growth at 10 µM (MDA-MB-468): 26.2%
O=c1nc(N2CCOCC2)oc2c(-c3cccc4c3oc3ccccc34)cccc12 | 0.269 µM | 11.6% | 5.92% | 19.4% | 4.2% | 1.19% | 34.7% | 12% | 13% | 27.7% | 22.3% | 23% | -2.34% | -4.36% | 12.7% | 7.66% | 19.7% | 17.1% | 2.4% | 37.4% | inhibition of growth at 10 µM [9]: 0.3%; inhibition of growth at 10 µM [10]: -1.43%; inhibition of growth at 10 µM [11]: 10.7%; inhibition of growth at 10 µM [12]: 3.88%; inhibition of growth at 10 µM [13]: -14.9%; inhibition of growth at 10 µM (786-0): 21.8%; inhibition of growth at 10 µM (ACHN): 6.98%; inhibition of growth at 10 µM (SN12C): 5.07%; inhibition of growth at 10 µM [14]: 23.2%; inhibition of growth at 10 µM [15]: 1.77%; inhibition of growth at 10 µM (MCF7): 11.3%; inhibition of growth at 10 µM (MDA-MB-231): 18%; inhibition of growth at 10 µM [16]: 14.6%; inhibition of growth at 10 µM [17]: 2.25%; inhibition of growth at 10 µM (T47D): 15.1%; inhibition of growth at 10 µM (MDA-MB-468): 18.7%
O=c1nc(N2CCOCC2)oc2c(-c3ccsc3)cccc12 | 9.8 µM | 8.93% | 4.04% | -1.04% | 9.6% | 3.35% | 21.9% | 3.82% | 15.3% | 21.9% | 16% | 0.83% | -5.35% | -2.71% | 2.74% | 8.75% | 9.75% | 3.77% | 8.4% | 31.4% | inhibition of growth at 10 µM [9]: 7.97%; inhibition of growth at 10 µM [10]: 3.41%; inhibition of growth at 10 µM [11]: 10.8%; inhibition of growth at 10 µM [12]: 3.77%; inhibition of growth at 10 µM [13]: -0.06%; inhibition of growth at 10 µM (786-0): 11.9%; inhibition of growth at 10 µM (ACHN): 2.44%; inhibition of growth at 10 µM (SN12C): 9.14%; inhibition of growth at 10 µM [14]: 24.6%; inhibition of growth at 10 µM [15]: 0.16%; inhibition of growth at 10 µM (MCF7): 22.3%; inhibition of growth at 10 µM (MDA-MB-231): 6.78%; inhibition of growth at 10 µM [16]: 9.35%; inhibition of growth at 10 µM [17]: 4.54%; inhibition of growth at 10 µM (T47D): 26.5%; inhibition of growth at 10 µM (MDA-MB-468): 15%
O=c1nc(N2CCOCC2)oc2c(-c3cccs3)cccc12 | 7.12 µM | 2.36% | 3.68% | 0.8% | -0.6% | -0.55% | 18% | 5.77% | 8.34% | 22% | 9.05% | 13.8% | 1.02% | -4.81% | 1.99% | 4.68% | 16.1% | -0.12% | 2.22% | 20.9% | inhibition of growth at 10 µM [9]: 8.05%; inhibition of growth at 10 µM [10]: 2.16%; inhibition of growth at 10 µM [11]: 4.55%; inhibition of growth at 10 µM [12]: 5%; inhibition of growth at 10 µM [13]: -0.56%; inhibition of growth at 10 µM (786-0): 7.7%; inhibition of growth at 10 µM (ACHN): 2.88%; inhibition of growth at 10 µM (SN12C): -3.08%; inhibition of growth at 10 µM [14]: 17.2%; inhibition of growth at 10 µM [15]: -2.35%; inhibition of growth at 10 µM (MCF7): 21.9%; inhibition of growth at 10 µM (MDA-MB-231): -6.21%; inhibition of growth at 10 µM [16]: 7.89%; inhibition of growth at 10 µM [17]: 14.5%; inhibition of growth at 10 µM (T47D): 17.8%; inhibition of growth at 10 µM (MDA-MB-468): 20.3%

From ChEMBL document CHEMBL3763148, “Synthesis, structure elucidation, DNA-PK and PI3K and anti-cancer activity of 8- and 6-aryl-substituted-1-3-benzoxazines” (Eur J Med Chem, 2016)
